Experimental data published in PMC11864979, “First-in-class ultralong-target-residence-time p38α inhibitors as a mitosis-targeted therapy for colorectal cancer” (Nature Cancer, 2025).
Read-outs that look alike come from different tables or passages of the source.

Key:
Assay in all cases: selectivity profiling in a panel of 340 wild-type kinases (Reaction Biology Europe)
Type in all cases: binding
[1] = target: T1, 340 wild-type kinases (Homo sapiens, UniProt P07948)
T1 construct: purchased Reaction Biology Europe
T1 sequence (P07948 whole entry): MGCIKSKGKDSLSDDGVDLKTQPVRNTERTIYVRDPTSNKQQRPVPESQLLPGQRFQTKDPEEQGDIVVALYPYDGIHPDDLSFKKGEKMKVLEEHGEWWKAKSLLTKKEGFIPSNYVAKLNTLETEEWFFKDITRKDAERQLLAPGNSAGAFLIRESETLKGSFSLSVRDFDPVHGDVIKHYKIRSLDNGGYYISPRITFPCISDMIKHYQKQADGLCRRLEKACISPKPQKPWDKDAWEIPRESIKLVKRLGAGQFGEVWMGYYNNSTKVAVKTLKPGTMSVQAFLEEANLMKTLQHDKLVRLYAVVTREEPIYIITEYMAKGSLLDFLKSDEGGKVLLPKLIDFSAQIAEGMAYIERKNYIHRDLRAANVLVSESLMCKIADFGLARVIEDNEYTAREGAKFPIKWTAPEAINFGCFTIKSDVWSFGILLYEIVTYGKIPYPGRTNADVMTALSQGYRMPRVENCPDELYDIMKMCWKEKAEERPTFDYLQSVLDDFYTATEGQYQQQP

[2] = target: T2, 340 wild-type kinases (Homo sapiens, UniProt Q9BYT3)
T2 construct: purchased Reaction Biology Europe
T2 sequence (Q9BYT3 whole entry): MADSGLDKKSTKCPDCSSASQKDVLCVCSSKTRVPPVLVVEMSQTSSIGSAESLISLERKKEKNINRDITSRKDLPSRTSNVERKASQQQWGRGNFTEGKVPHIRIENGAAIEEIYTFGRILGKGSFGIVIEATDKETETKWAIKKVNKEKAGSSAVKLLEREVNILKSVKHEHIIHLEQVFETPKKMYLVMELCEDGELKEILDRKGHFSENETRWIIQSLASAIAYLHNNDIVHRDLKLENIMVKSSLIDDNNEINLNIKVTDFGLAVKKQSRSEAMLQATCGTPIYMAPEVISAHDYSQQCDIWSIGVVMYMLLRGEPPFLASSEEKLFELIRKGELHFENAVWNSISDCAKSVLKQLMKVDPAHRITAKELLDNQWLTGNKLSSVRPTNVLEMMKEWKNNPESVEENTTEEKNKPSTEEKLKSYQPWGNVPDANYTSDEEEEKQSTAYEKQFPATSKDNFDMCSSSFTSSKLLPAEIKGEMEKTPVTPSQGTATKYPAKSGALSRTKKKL

[3] = target: T3, 340 wild-type kinases (Homo sapiens, UniProt Q16644)
T3 construct: purchased Reaction Biology Europe
T3 sequence (Q16644 whole entry): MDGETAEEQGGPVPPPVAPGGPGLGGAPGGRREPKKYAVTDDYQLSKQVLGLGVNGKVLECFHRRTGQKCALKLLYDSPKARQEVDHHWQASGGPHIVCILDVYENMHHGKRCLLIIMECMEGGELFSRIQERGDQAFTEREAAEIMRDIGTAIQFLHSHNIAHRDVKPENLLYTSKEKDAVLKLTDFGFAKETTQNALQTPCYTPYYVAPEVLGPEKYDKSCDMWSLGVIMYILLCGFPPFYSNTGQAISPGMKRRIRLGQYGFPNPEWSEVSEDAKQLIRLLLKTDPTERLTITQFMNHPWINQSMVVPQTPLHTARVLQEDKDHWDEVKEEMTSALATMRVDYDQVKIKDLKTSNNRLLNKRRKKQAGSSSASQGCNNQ

[4] = target: T4, 340 wild-type kinases (Homo sapiens, UniProt P00519)
T4 construct: purchased Reaction Biology Europe
T4 sequence (P00519 whole entry): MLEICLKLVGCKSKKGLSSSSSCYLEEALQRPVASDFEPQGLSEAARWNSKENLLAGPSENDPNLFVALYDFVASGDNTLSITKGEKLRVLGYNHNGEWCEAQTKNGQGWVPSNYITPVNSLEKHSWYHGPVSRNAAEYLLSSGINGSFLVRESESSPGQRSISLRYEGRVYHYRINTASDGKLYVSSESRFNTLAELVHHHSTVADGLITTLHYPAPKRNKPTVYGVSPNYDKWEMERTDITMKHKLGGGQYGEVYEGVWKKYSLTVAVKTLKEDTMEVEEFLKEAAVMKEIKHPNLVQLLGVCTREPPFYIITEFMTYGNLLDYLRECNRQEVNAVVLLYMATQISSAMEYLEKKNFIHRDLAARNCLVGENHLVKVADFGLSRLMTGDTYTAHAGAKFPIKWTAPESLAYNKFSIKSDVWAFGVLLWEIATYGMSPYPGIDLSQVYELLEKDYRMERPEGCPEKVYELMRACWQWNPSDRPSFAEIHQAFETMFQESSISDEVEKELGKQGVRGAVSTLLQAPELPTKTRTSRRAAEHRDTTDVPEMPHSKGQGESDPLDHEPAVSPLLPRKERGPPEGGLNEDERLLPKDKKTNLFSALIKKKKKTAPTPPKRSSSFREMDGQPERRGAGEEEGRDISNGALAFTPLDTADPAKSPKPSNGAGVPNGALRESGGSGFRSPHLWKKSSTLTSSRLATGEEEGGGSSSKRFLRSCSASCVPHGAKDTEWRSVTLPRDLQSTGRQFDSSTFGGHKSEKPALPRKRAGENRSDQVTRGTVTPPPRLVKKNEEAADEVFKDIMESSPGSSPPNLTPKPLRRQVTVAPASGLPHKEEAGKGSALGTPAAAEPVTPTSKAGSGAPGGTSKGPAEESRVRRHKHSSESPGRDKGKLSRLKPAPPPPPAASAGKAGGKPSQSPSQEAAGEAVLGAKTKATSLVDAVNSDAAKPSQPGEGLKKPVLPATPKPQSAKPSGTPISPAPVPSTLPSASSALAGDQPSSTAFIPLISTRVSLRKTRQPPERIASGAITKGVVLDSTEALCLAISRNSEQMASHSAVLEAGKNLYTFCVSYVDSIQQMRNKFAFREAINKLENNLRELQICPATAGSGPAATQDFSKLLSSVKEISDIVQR

[5] = target: T5, 340 wild-type kinases (Homo sapiens, UniProt Q8N568)
T5 construct: purchased Reaction Biology Europe

[6] = target: T6, 340 wild-type kinases (Homo sapiens, UniProt Q9H1R3)
T6 construct: purchased Reaction Biology Europe
T6 sequence (Q9H1R3 whole entry): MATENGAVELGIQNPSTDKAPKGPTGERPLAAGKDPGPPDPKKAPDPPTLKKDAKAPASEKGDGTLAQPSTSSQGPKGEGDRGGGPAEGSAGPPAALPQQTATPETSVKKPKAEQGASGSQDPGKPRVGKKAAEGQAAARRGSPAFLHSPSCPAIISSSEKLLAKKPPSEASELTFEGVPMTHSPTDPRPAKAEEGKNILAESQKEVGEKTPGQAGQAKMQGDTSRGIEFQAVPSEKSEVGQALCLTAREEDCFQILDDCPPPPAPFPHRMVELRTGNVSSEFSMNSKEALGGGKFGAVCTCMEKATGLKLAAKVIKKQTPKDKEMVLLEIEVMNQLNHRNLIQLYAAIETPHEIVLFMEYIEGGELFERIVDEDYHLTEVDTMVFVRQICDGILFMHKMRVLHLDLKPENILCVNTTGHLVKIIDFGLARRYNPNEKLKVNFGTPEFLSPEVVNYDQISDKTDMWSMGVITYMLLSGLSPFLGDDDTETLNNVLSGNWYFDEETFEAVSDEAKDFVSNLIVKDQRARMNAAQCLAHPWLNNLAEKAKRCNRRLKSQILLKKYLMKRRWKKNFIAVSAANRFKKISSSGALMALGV

[7] = target: T7, 340 wild-type kinases (Homo sapiens, UniProt P27037)
T7 construct: purchased Reaction Biology Europe
T7 sequence (P27037 20-513): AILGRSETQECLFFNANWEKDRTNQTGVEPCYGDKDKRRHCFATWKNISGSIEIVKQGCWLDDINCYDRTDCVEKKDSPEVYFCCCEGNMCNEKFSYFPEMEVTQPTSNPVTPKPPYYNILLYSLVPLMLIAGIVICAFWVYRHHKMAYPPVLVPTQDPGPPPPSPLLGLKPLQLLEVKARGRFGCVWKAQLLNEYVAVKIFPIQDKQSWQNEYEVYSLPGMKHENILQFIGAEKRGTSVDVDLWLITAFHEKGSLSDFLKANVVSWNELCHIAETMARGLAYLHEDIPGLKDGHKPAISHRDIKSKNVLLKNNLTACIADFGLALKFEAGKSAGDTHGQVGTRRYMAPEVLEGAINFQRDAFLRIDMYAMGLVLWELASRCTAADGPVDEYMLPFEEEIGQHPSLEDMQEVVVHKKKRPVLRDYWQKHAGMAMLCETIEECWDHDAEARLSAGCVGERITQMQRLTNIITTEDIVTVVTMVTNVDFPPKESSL

[8] = target: T8, 340 wild-type kinases (Homo sapiens, UniProt O00418)
T8 construct: purchased Reaction Biology Europe
T8 sequence (O00418 1-725): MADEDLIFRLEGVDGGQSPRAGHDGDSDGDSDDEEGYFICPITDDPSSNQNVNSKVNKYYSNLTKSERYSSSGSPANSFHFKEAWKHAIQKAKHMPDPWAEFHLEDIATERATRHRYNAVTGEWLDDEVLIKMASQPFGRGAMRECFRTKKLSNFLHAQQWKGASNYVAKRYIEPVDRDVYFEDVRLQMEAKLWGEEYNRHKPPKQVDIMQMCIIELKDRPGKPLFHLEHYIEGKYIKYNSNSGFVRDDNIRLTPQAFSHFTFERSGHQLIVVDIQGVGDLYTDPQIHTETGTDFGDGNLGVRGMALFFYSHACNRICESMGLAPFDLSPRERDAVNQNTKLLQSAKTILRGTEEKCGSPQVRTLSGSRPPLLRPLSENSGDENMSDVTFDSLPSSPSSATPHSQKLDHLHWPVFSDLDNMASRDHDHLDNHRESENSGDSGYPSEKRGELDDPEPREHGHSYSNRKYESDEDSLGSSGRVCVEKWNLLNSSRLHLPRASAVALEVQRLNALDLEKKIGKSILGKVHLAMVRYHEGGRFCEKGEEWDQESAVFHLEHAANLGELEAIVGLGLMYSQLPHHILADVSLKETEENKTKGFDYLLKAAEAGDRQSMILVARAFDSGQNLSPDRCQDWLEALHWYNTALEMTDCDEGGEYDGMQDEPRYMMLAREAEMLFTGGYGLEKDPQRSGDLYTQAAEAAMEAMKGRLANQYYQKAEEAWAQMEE

[9] = target: T9, 340 wild-type kinases (Homo sapiens, UniProt Q13177)
T9 construct: purchased Reaction Biology Europe
T9 sequence (Q13177 whole entry): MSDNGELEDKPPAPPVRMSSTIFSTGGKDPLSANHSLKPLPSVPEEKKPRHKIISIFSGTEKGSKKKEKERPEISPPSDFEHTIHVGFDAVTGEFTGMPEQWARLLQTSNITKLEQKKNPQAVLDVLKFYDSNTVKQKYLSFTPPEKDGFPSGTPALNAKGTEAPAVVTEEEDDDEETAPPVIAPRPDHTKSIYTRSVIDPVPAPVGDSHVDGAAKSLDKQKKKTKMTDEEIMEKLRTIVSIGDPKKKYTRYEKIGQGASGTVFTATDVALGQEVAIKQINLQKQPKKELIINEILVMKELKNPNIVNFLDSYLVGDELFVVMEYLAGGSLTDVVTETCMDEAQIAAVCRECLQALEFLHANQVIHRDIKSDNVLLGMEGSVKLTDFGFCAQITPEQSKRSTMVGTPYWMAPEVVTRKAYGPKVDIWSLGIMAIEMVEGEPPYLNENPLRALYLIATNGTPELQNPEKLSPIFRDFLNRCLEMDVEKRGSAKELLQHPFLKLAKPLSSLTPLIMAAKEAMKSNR

[10] = target: T10, 340 wild-type kinases (Homo sapiens, UniProt Q04759)
T10 construct: purchased Reaction Biology Europe

[11] = target: T11, 340 wild-type kinases (Homo sapiens, UniProt Q13554)
T11 construct: purchased Reaction Biology Europe
T11 sequence (Q13554 whole entry): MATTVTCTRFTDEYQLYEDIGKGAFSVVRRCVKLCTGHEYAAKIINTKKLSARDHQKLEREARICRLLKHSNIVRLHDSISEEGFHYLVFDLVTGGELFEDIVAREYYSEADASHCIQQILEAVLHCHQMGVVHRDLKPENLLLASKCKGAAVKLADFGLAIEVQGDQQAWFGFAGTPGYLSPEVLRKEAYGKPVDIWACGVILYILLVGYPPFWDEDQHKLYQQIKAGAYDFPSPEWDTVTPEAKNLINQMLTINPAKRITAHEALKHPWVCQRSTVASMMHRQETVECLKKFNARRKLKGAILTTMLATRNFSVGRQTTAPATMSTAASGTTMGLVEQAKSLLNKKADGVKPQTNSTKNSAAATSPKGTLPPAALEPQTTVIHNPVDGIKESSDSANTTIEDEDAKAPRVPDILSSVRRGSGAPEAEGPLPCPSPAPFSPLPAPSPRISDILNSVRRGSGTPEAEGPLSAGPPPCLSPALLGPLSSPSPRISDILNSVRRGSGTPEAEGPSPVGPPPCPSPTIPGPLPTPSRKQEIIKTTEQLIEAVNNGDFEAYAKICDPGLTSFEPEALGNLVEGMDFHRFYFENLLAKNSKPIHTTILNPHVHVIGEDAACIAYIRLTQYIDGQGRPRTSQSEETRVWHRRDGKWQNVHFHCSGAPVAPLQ

`CNC(=O)c1ccc2c(c1)C(=O)c1ccc(Nc3ccc(F)c(NC(=O)C4CC4)c3)cc1CC2` [Compound 2015] showed a remaining activity at 0.2 µM ([1]; 0.2 µM 2015, read-out: LYN residual activity) of 109%, a remaining activity at 1 µM ([1]; 1 µM 2015, read-out: LYN residual activity) of 82.5% and a remaining activity at 0.2 µM ([1]; LYN, 0.2 µM, read-out: residual activity) of 109%. It also gave a remaining activity at 1 µM ([1]; LYN, 1 µM, read-out: residual activity) of 82.5%, a remaining activity at 0.2 µM ([2]; 0.2 µM 2015, read-out: STK33 residual activity) of 99.1% and a remaining activity at 1 µM ([2]; 1 µM 2015, read-out: STK33 residual activity) of 96.3%. The remaining activity at 0.2 µM ([2]; STK33, 0.2 µM, read-out: residual activity) was 99.1%, the remaining activity at 1 µM ([2]; STK33, 1 µM, read-out: residual activity) was 96.3% and the remaining activity at 0.2 µM ([3]; 0.2 µM 2015, read-out: MAPKAPK3 residual activity) was 97.3%. For the same molecule, the remaining activity at 1 µM ([3]; 1 µM 2015, read-out: MAPKAPK3 residual activity) was 86.1%, the remaining activity at 0.2 µM ([3]; MAPKAPK3, 0.2 µM, read-out: residual activity) was 97.3% and the remaining activity at 1 µM ([3]; MAPKAPK3, 1 µM, read-out: residual activity) was 86.1%. It also gave a remaining activity at 0.2 µM ([4]; 0.2 µM 2015, read-out: ABL1 residual activity) of 108%, a remaining activity at 1 µM ([4]; 1 µM 2015, read-out: ABL1 residual activity) of 99.6% and a remaining activity at 0.2 µM ([4]; ABL1, 0.2 µM, read-out: residual activity) of 108%. The remaining activity at 1 µM ([4]; ABL1, 1 µM, read-out: residual activity) was 99.6%, the remaining activity at 0.2 µM ([5]; 0.2 µM 2015, read-out: DCAMKL2 residual activity) was 102% and the remaining activity at 1 µM ([5]; 1 µM 2015, read-out: DCAMKL2 residual activity) was 86.3%. For the same molecule, the remaining activity at 0.2 µM ([5]; DCAMKL2, 0.2 µM, read-out: residual activity) was 102%, the remaining activity at 1 µM ([5]; DCAMKL2, 1 µM, read-out: residual activity) was 86.3% and the remaining activity at 0.2 µM ([6]; 0.2 µM 2015, read-out: MYLK2 residual activity) was 89.3%. It also gave a remaining activity at 1 µM ([6]; 1 µM 2015, read-out: MYLK2 residual activity) of 77.6%, a remaining activity at 0.2 µM ([6]; MYLK2, 0.2 µM, read-out: residual activity) of 89.3% and a remaining activity at 1 µM ([6]; MYLK2, 1 µM, read-out: residual activity) of 77.6%. It also gave a remaining activity at 0.2 µM ([7]; 0.2 µM 2015, read-out: ACVR2A residual activity) of 119%, a remaining activity at 1 µM ([7]; 1 µM 2015, read-out: ACVR2A residual activity) of 104% and a remaining activity at 0.2 µM ([7]; ACVR2A, 0.2 µM, read-out: residual activity) of 119%. For the same molecule, the remaining activity at 1 µM ([7]; ACVR2A, 1 µM, read-out: residual activity) was 104%, the remaining activity at 0.2 µM ([8]; 0.2 µM 2015, read-out: EEF2K residual activity) was 106% and the remaining activity at 1 µM ([8]; 1 µM 2015, read-out: EEF2K residual activity) was 98.4%. It also gave a remaining activity at 0.2 µM ([8]; EEF2K, 0.2 µM, read-out: residual activity) of 106%, a remaining activity at 1 µM ([8]; EEF2K, 1 µM, read-out: residual activity) of 98.4% and a remaining activity at 0.2 µM ([9]; 0.2 µM 2015, read-out: PAK2 residual activity) of 103%. The remaining activity at 1 µM ([9]; 1 µM 2015, read-out: PAK2 residual activity) was 102%, the remaining activity at 0.2 µM ([9]; PAK2, 0.2 µM, read-out: residual activity) was 103% and the remaining activity at 1 µM ([9]; PAK2, 1 µM, read-out: residual activity) was 102%. It also gave a remaining activity at 0.2 µM ([10]; 0.2 µM 2015, read-out: PKCtheta residual activity) of 108%, a remaining activity at 1 µM ([10]; 1 µM 2015, read-out: PKCtheta residual activity) of 89.1% and a remaining activity at 0.2 µM ([10]; PKCtheta, 0.2 µM, read-out: residual activity) of 108%. The remaining activity at 1 µM ([10]; PKCtheta, 1 µM, read-out: residual activity) was 89%, the remaining activity at 0.2 µM ([11]; 0.2 µM 2015, read-out: CAMK2B residual activity) was 112% and the remaining activity at 1 µM ([11]; 1 µM 2015, read-out: CAMK2B residual activity) was 89%. For the same molecule, the remaining activity at 0.2 µM ([11]; CAMK2B, 0.2 µM, read-out: residual activity) was 112% and the remaining activity at 1 µM ([11]; CAMK2B, 1 µM, read-out: residual activity) was 89%.
